Molecular target: T1, AgrA (Staphylococcus aureus, UniProt P0A0I7)
T1 construct: endogenous in cells; host or cells: S. aureus USA300 strain UAMS-1625 carrying a P3-lacZ reporter plasmid
Assay: cell-based
Set-up: species or system S. aureus
Details: for Ratio IC50 (in presence of HSA)/IC50 (in absence of HSA): 40 mg/mL HSA versus no HSA
Protocol: The inventive compounds are 3-(phenylsulfonyl)-[1,2,3]triazolo[1,5a]quinazolin-5(4h)-one derivatives comprising an N-bound piperazine or homopiperazine at the 8-position of the [1,2,3]triazolo[1,5a]quinazolin-5(4h)-one core, further substituted (on the second nitrogen atom) by an (optionally substituted) acetyl or propionyl amide group. […] Specifically, the reporter gene lacZ (which encodes the protein product β-galactosidase) was transfected into S. aureus with a plasmid under control of the P3 promoter. The compounds were serially diluted in lysogeny broth (LB), and incubated with S. aureus. Following incubation, the S. aureus cells were lysed and treated with 4-methylumbelliferyl-galactopyranoside (MUG). The β-galactosidase produced by expression of lacZ cleaved the MUG into galactopyranose and 4-methylumbelliferone, which was measured by fluorescence.
The resulting reporter strain was used to measure AgrA inhibitory activity as follows. From an overnight culture plate, cells were resuspended in 0.9% (w/v) saline solution and bacterial inoculum was prepared in LB medium with 5×10^5 CFU/ml. Compounds were two-fold serially diluted in LB and 50 μL of this 10× concentrated samples were added into the 96-deep well plate. 500 μL of bacterial suspension was finally added to the compounds or DMSO control. Plates were covered and incubated with shaking at 37° C. After 18 hours incubation, 100 μL was transferred to a new clear 96-well plate and the OD600 was measured using a TECAN Infinite F200 microplate reader to control for growth inhibition. Another 100 μL was transferred to a new black 96-well plate containing 30 μL of lysis buffer (20 mM Tris/HCl, 3 mM MgCl2, 0.5% Tween 20 (v/v), 0.5% NP-40 (v/v)) and the plate was incubated with shaking at 37° C. for 60 min. 20 μL of the substrate MUG (4-Methylumbelliferyl O-D-galactopyranoside) at 0.25 mg/ml was added and the fluorescence (excitation: 360 nm, emission: 450 mu) was measured with a TECAN Infinite F200 microplate reader after 3 hours incubation at 37° C. with shaking. The IC50 was determined using GraphPad PRISM after normalization to DMSO control.

[1] = IC50 at 40 mg/mL HSA, LB medium supplemented with human serum albumin 40 mg/mL
[2] = IC50 without HSA, LB medium, no human serum albumin, 18 hours incubation
[3] = LB medium supplemented with human serum albumin 40 mg/mL
[4] = LB medium, no human serum albumin, 18 hours incubation

T1 sequence (P0A0I7 whole entry): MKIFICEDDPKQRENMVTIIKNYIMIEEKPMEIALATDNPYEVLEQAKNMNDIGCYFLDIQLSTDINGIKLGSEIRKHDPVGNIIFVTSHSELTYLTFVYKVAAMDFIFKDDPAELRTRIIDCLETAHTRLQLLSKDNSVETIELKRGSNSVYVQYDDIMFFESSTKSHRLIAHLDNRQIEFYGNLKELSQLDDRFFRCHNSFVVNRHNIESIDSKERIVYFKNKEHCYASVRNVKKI

SMILES | IC50 [1] | IC50 [2] | also measured
Cc1ccc(S(=O)(=O)c2nnn3c2[nH]c(=O)c2ccc(N4CCN(CC(=O)NCCCC5CCCCC5)CC4)cc23)c(C)c1 [Compound 44] | 16.1 to 80.7 µM | 1.61 to 8.07 µM | 
Cc1ccc(S(=O)(=O)c2nnn3c2[nH]c(=O)c2ccc(N4CCC4)cc23)c(C)c1 [Compound 45 of WO 2020/109350, reference compound] | > 122 µM | < 2.44 µM | Ratio IC50 (in presence of HSA)/IC50 (in absence of HSA): + (+: ratio > 125); IC50 (IC50 in the presence of 40 mg/mL HSA, 40 mg/mL HSA, highest concentration tested 128 μg/mL): > 313 µM; IC50 (concentration inhibiting the expression of lacZ in the absence of HSA, absence of HSA): < 2.44 µM
Cc1ccc(S(=O)(=O)c2nnn3c2[nH]c(=O)c2ccc(N4CCCN(CC(=O)NC5CCC5)CC4)cc23)c(C)c1 [Compound 51] | 17.7 to 88.7 µM | < 1.77 µM | 
Cc1ccc(S(=O)(=O)c2nnn3c2[nH]c(=O)c2ccc(N4CCCN(CC(=O)NC5CCCC5)CC4)cc23)c(C)c1 [Compound 52] | 17.3 to 86.5 µM | 1.73 to 8.65 µM | 
Cc1ccc(S(=O)(=O)c2nnn3c2[nH]c(=O)c2ccc(N4CCCN(CC(=O)NC5CCCCC5)CC4)cc23)c(C)c1 [Compound 53] |  |  | Ratio IC50 (in presence of HSA)/IC50 (in absence of HSA): +++ (+++: ratio ≤ 25); IC50 at 40 mg/mL HSA [3]: ++ (++: 10 μg/mL < IC50 ≤ 50 μg/mL); IC50 without HSA [4]: ++ (++: 1 μg/mL < IC50 ≤ 5 μg/mL)
Cc1ccc(S(=O)(=O)c2nnn3c2[nH]c(=O)c2ccc(N4CCN(CC(=O)N5CCC5)CC4)cc23)c(C)c1 [Compound 54] | 18.7 to 93.3 µM | < 1.87 µM | 
Cc1ccc(S(=O)(=O)c2nnn3c2[nH]c(=O)c2ccc(N4CCN(CC(=O)N5CCCCC5)CC4)cc23)c(C)c1 [Compound 55] | 17.7 to 88.7 µM | < 1.77 µM | 
Cc1ccc(S(=O)(=O)c2nnn3c2[nH]c(=O)c2ccc(N4CCN(CC(=O)N5CCCCCC5)CC4)cc23)c(C)c1 [Compound 56] |  |  | Ratio IC50 (in presence of HSA)/IC50 (in absence of HSA): ++ (++: 25 < ratio ≤ 125); IC50 at 40 mg/mL HSA [3]: ++ (++: 10 μg/mL < IC50 ≤ 50 μg/mL); IC50 without HSA [4]: +++ (+++: IC50 ≤ 1 μg/mL)
Cc1ccc(S(=O)(=O)c2nnn3c2[nH]c(=O)c2ccc(N4CCN(CC(=O)N5CCCOCC5)CC4)cc23)c(C)c1 [Compound 57] | 17.3 to 86.3 µM | < 1.73 µM | 
Cc1ccc(S(=O)(=O)c2nnn3c2[nH]c(=O)c2ccc(N4CCN(CC(=O)N5CCN(C)CC5)CC4)cc23)c(C)c1 [Compound 58] | 17.3 to 86.4 µM | < 1.73 µM | 
Cc1ccc(S(=O)(=O)c2nnn3c2[nH]c(=O)c2ccc(N4CCN(CC(=O)N5CCN(C(C)(C)C)CC5)CC4)cc23)c(C)c1 [Compound 59] | < 16.1 µM | 1.61 to 8.05 µM | 
Cc1ccc(S(=O)(=O)c2nnn3c2[nH]c(=O)c2ccc(N4CCN(CC(=O)N5CCN(C6CC6)CC5)CC4)cc23)c(C)c1 [Compound 60] | < 16.5 µM | < 1.65 µM | 
Cc1ccc(S(=O)(=O)c2nnn3c2[nH]c(=O)c2ccc(N4CCN(CC(=O)N5CCNC(=O)C5)CC4)cc23)c(C)c1 [Compound 62] | 17.3 to 86.4 µM | 1.73 to 8.64 µM | 
Cc1ccc(S(=O)(=O)c2nnn3c2[nH]c(=O)c2ccc(N4CCN(CC(=O)N5CCC(F)(F)CC5)CC4)cc23)c(C)c1 [Compound 64] | 16.7 to 83.4 µM | < 1.67 µM | 
Cc1ccc(S(=O)(=O)c2nnn3c2[nH]c(=O)c2ccc(N4CCN(CC(=O)N5CCC(N(C)C)CC5)CC4)cc23)c(C)c1 [Compound 65] | < 16.5 µM | 1.65 to 8.24 µM | 
Cc1ccc(S(=O)(=O)c2nnn3c2[nH]c(=O)c2ccc(N4CCN(CC(=O)N5CCCC(O)C5)CC4)cc23)c(C)c1 (centres unmarked) [Compound 67] | 17.3 to 86.3 µM | 1.73 to 8.63 µM | 
Cc1ccc(S(=O)(=O)c2nnn3c2[nH]c(=O)c2ccc(N4CCN(CC(=O)N5CCCN(C)CC5)CC4)cc23)c(C)c1 [Compound 69] | < 16.9 µM | 1.69 to 8.44 µM | 

SMILES | IC50 [1] | IC50 [2] | also measured
Cc1ccc(S(=O)(=O)c2nnn3c2[nH]c(=O)c2ccc(N4CCN(CC(=O)N5CCCN(C(C)C)CC5)CC4)cc23)c(C)c1 [Compound 70] | 16.1 to 80.5 µM | < 1.61 µM | 
Cc1ccc(S(=O)(=O)c2nnn3c2[nH]c(=O)c2ccc(N4CCN(CC(=O)N5CCCN(CCO)CC5)CC4)cc23)c(C)c1 [Compound 71] | 16.1 to 80.3 µM | 1.61 to 8.03 µM | 
Cc1ccc(S(=O)(=O)c2nnn3c2[nH]c(=O)c2ccc(N4CCN(CC(=O)N5CCCC(=O)CC5)CC4)cc23)c(C)c1 [Compound 72] | 16.9 to 84.5 µM | < 1.69 µM | 
Cc1ccc(S(=O)(=O)c2nnn3c2[nH]c(=O)c2ccc(N4CCN(CC(=O)N5CC(C6CC6)C5)CC4)cc23)c(C)c1 [Compound 73] | 17.4 to 86.9 µM | < 1.74 µM | 
Cc1ccc(S(=O)(=O)c2nnn3c2[nH]c(=O)c2ccc(N4CCN(CC(=O)N5C(C)CCC5C)CC4)cc23)c(C)c1 (centres unmarked) [Compound 74] |  |  | Ratio IC50 (in presence of HSA)/IC50 (in absence of HSA): +++ (+++: ratio ≤ 25); IC50 at 40 mg/mL HSA [3]: ++ (++: 10 μg/mL < IC50 ≤ 50 μg/mL); IC50 without HSA [4]: +++ (+++: IC50 ≤ 1 μg/mL)
Cc1ccc(S(=O)(=O)c2nnn3c2[nH]c(=O)c2ccc(N4CCN(CC(=O)N5CCC(O)C5)CC4)cc23)c(C)c1 (centres unmarked) [Compound 75] |  |  | Ratio IC50 (in presence of HSA)/IC50 (in absence of HSA): +++ (+++: ratio ≤ 25); IC50 at 40 mg/mL HSA [3]: ++ (++: 10 μg/mL < IC50 ≤ 50 μg/mL); IC50 without HSA [4]: ++ (++: 1 μg/mL < IC50 ≤ 5 μg/mL)
Cc1ccc(S(=O)(=O)c2nnn3c2[nH]c(=O)c2ccc(N4CCN(CC(=O)N5CCCC5CO)CC4)cc23)c(C)c1 (centres unmarked) [Compound 76] |  |  | Ratio IC50 (in presence of HSA)/IC50 (in absence of HSA): +++ (+++: ratio ≤ 25); IC50 at 40 mg/mL HSA [3]: ++ (++: 10 μg/mL < IC50 ≤ 50 μg/mL); IC50 without HSA [4]: ++ (++: 1 μg/mL < IC50 ≤ 5 μg/mL)
Cc1ccc(S(=O)(=O)c2nnn3c2[nH]c(=O)c2ccc(N4CCCN(CC(=O)N5CCCC5)CC4)cc23)c(C)c1 [Compound 83] |  |  | Ratio IC50 (in presence of HSA)/IC50 (in absence of HSA): +++ (+++: ratio ≤ 25); IC50 at 40 mg/mL HSA [3]: +++ (+++: IC50 ≤ 10 μg/mL); IC50 without HSA [4]: ++ (++: 1 μg/mL < IC50 ≤ 5 μg/mL)
Cc1ccc(S(=O)(=O)c2nnn3c2[nH]c(=O)c2ccc(N4CCCN(CC(=O)N5CCOCC5)CC4)cc23)c(C)c1 [Compound 84] |  |  | Ratio IC50 (in presence of HSA)/IC50 (in absence of HSA): +++ (+++: ratio ≤ 25); IC50 at 40 mg/mL HSA [3]: +++ (+++: IC50 ≤ 10 μg/mL); IC50 without HSA [4]: ++ (++: 1 μg/mL < IC50 ≤ 5 μg/mL)
Cc1ccc(S(=O)(=O)c2nnn3c2[nH]c(=O)c2ccc(N4CCCN(CC(=O)N5CCCCC5)CC4)cc23)c(C)c1 [Compound 85] | 17.3 to 86.5 µM | 1.73 to 8.65 µM | 
Cc1ccc(S(=O)(=O)c2nnn3c2[nH]c(=O)c2ccc(N4CCN(CC(=O)NC5CCN(C)CC5)CC4)cc23)c(C)c1 [Compound 86] | 16.9 to 84.4 µM | 1.69 to 8.44 µM | 
Cc1ccc(S(=O)(=O)c2nnn3c2[nH]c(=O)c2ccc(N4CCN(CC(=O)NC5CCOCC5)CC4)cc23)c(C)c1 [Compound 87] |  |  | Ratio IC50 (in presence of HSA)/IC50 (in absence of HSA): +++ (+++: ratio ≤ 25); IC50 at 40 mg/mL HSA [3]: +++ (+++: IC50 ≤ 10 μg/mL); IC50 without HSA [4]: +++ (+++: IC50 ≤ 1 μg/mL)
Cc1ccc(S(=O)(=O)c2nnn3c2[nH]c(=O)c2ccc(N4CCN(CC(=O)NCC5CCN(C)CC5)CC4)cc23)c(C)c1 [Compound 88] | 16.5 to 82.4 µM | 1.65 to 8.24 µM | 
Cc1ccc(S(=O)(=O)c2nnn3c2[nH]c(=O)c2ccc(N4CCN(CC(=O)NCCN5CCN(C)CC5)CC4)cc23)c(C)c1 [Compound 89] | 16.1 to 80.4 µM | 1.61 to 8.04 µM | 
Cc1ccc(S(=O)(=O)c2nnn3c2[nH]c(=O)c2ccc(N4CCN(CC(=O)NCCN5CCCCC5)CC4)cc23)c(C)c1 [Compound 90] | 16.5 to 82.4 µM | 1.65 to 8.24 µM | 
Cc1ccc(S(=O)(=O)c2nnn3c2[nH]c(=O)c2ccc(N4CCN(CC(=O)NCCN5CCOCC5)CC4)cc23)c(C)c1 [Compound 91] | 16.4 to 82.1 µM | 1.64 to 8.21 µM | 
